The subject of experiment [1] is NiV-pVSV. Put plainly: microbe, parasite or virus in culture. It is filed as cell-based, Nipah virus envelope pseudotyped onto VSV.
Experiment [2] deals with pVSV particles.
Experiment [3] concerns enveloped viruses, such as influenza, HIV-1 and TBEV. The note with it: cited from earlier work.
The subject of experiment [4] is enveloped viruses. The note with it: cited from earlier work.
[5] abbreviates: Vesicular stomatitis virus, Vero.

Here are results for 29 molecules from patent publication US20120219613A1 (priority 2009, published 2012).

“And” between values parts separate entries of the source, which are not always exact repeats. Identical values can stand only once. Like-named read-outs stand apart in the source and are kept apart here.

The IC50 is the concentration needed to halve the response being measured.

Consider `CCN1C(=O)/C(=C/c2ccc(-c3cccc(F)c3)o2)SC1=S` [LJ-007, (Z)-3-Ethyl-5-[5-(3-fluorophenyl)-2-furyl]methylene-4-oxothiazolidine-2-thione], for which the values for the IC50 in experiment [1] and in experiment [1] (setting [5]) were 1.45 µM and 2.5 µM, respectively.

With `CCN1C(=O)/C(=C/c2ccc(-c3ccccc3[N+](=O)[O-])o2)SC1=S` [LJ-015, (Z)-3-ethyl-5-((5-(2-nitrophenyl)furan-2-yl)methylene)-2-thioxothiazolidin-4-one], the half-maximal inhibitory concentration (IC50) came to 1.03 µM in experiment [1] and 1.3 µM in experiment [1] (setting [5]).

Take `CCN1C(=O)/C(=C/c2ccco2)SC1=S` [LJ-014, (Z)-3-ethyl-5-(furan-2-ylmethylene)-2-thioxothiazolidin-4-one]: in experiment [1], the “IC50 (μM)” value was “Inactive”.

Consider `CCN1C(=O)S/C(=C\c2ccc(-c3ccccc3[N+](=O)[O-])o2)C1=S` [LJ-030, (Z)-3-ethyl-5-((5-(2-nitrophenyl)furan-2-yl)methylene)-2-oxothiazolidin-4-thione], for which the IC50 in experiment [1] (setting [5]) is 0.49 µM.

With `CCN1C(=O)/C(=C/c2cnc(-c3ccccc3)o2)SC1=S` [LJ-023, (Z)-3-Ethyl-5-((2-phenyloxazol-5-yl)methylene)-2-thioxothiazolidin-4-one], in experiment [1], the IC50 came out at 2.4 µM and the “antiviral activity in SAR discussion” value is reported as “retained activity, albeit at slightly reduced levels”. Besides, in experiment [1] (setting [5]), the half-inhibitory concentration (IC50) came to 2.5 µM.

With `CCN1C(=O)/C(=C/c2ccc(-c3ccccc3O)o2)SC1=S` [LJ-016, (Z)-3-Ethyl-5-((5-(2-hydroxyphenyl)furan-2-yl)methylene)-2-thioxothiazolidin-4-one], the IC50 in experiment [1] was 2.35 µM; in experiment [1] (setting [5]) it was 2.2 µM. In addition, in experiment [1], the “antiviral activity in SAR discussion” value is listed as “tolerated but led to generally lower activity”.

Consider `CCN1C(=O)/C(=C/c2ccc(-c3cccc(OC)c3)o2)SC1=S` [LJ-011, (Z)-3-Ethyl-5-[5-(3-methoxyphenyl)-2-furyl]methylene-4-oxothiazolidine-2-thione], for which the half-inhibitory concentration (IC50) came to 1.16 µM in experiment [1] and 1.5 µM in experiment [1] (setting [5]).

On to `C=CCN1C(=O)S/C(=C\c2ccc(-c3ccccc3)o2)C1=O` [LJ-025, (Z)-3-Allyl-5-((5-phenylfuran-2-yl)methylene)thiazolidine-2,4-dione], for which, in experiment [1], the “IC50 (μM)” value is recorded as “Inactive”; the “antiviral activity in SAR discussion” value is “completely inactive both in vitro and in vivo”. Further, the “virion membrane morphology by EM” value in experiment [2] is listed as “not”.

Turning to `CCN1C(=O)/C(=C/c2ccc(-c3ccccc3)s2)SC1=S` [LJ-018, (Z)-3-ethyl-5-((5-phenylthiophen-2-yl)methylene)-2-thioxothiazolidin-4-one], in experiment [1], the IC50 is 2.65 µM and the “antiviral activity in SAR discussion” value was “retained activity, albeit at slightly reduced levels”. The IC50 in experiment [1] (setting [5]) is 4.1 µM.

For the molecule lysophosphotidylcholine [LPC], in experiment [3], the “required molar concentration (total lipid content)” value is no less than 10%.

Take `CN1C(=O)/C(=C/c2ccc(-c3ccccc3)o2)SC1=S` [LJ-005, (Z)-3-Methyl-5-(5-phenyl-2-furyl)methylene-4-oxothiazolidine-2-thione]: the IC50 was determined as 1.22 µM in experiment [1] and 1.5 µM in experiment [1] (setting [5]).

For `CCN1C(=O)/C(=C/c2ccc(C)o2)SC1=S` [LJ-013, (Z)-3-ethyl-5-((5-methylfuran-2-yl)methylene)-2-thioxothiazolidin-4-one], the “IC50 (μM)” value in experiment [1] was “Inactive”.

With `CCN1C(=O)/C(=C/c2ccc(-c3ccccc3OC)o2)SC1=S` [LJ-010, (Z)-3-Ethyl-5-[5-(2-methoxyphenyl)-2-furyl]methylene-4-oxothiazolidine-2-thione], the figures for the IC50 in experiment [1] and in experiment [1] (setting [5]) were 0.4 µM and 0.8 µM, respectively.

In the case of `CCCCCCCCCCCCCCCCCCCCCCO` [n-docosanol], the IC50 result in experiment [4] is on record as “millimolar”.

Regarding `CCN1C(=O)/C(=C/c2cccc(-c3ccccc3)c2)SC1=S` [LJ-019, (Z)-5-(Biphenyl-3-ylmethylene)-3-ethyl-2-thioxothiazolidin-4-one], in experiment [1], the “IC50 (μM)” value is on record as “Inactive” and the “antiviral activity in SAR discussion” value is “inactive”.

On to `O=C1NC2CSC(CCCCC(=O)OCCCN3C(=O)/C(=C/c4ccc(-c5ccccc5)o4)SC3=S)C2N1` (stereo not drawn) [LJ-024], for which the “antiviral activity in SAR discussion” value in experiment [1] is on record as “retained good activity”. The IC50 in experiment [1] (read-out: IC50) was 1.9 µM and 1.77 µM.

On to `CCN1C(=O)/C(=C/c2ccc(-c3ccccc3N)o2)SC1=S` [LJ-017, (Z)-5-((5-(2-Aminophenyl)furan-2-yl)methylene)-3-ethyl-2-thioxothiazolidin-4-one], for which the IC50 in experiment [1] turned out to be 1.96 µM; in experiment [1] (setting [5]) it was 3.4 µM. In addition, the “antiviral activity in SAR discussion” value in experiment [1] is on record as “tolerated but led to generally lower activity”.

For the molecule `NCCCN1C(=O)/C(=C/c2ccc(-c3ccccc3)o2)SC1=S` [LJ-035, (Z)-3-(3-Aminopropyl)-5-((5-phenylfuran-2-yl)methylene)-4-oxothiazolidin-2-thione], in experiment [1], the “IC50 (μM)” value is recorded as “Inactive”.

Consider `O=C1NC(=S)S/C1=C\c1ccc(-c2ccccc2)o1` [LJ-031, (Z)-5-(5-phenyl-2-furyl)methylene-4-oxothiazolidine-2-thione], for which the IC50 in experiment [1] (setting [5]) stood at 1.04 µM.

With `CCN1C(=S)S/C(=C\c2ccc(-c3ccccc3[N+](=O)[O-])o2)C1=S` [LJ-028], the IC50 in experiment [1] (read-out: IC50) came to 2.01 µM.

As to `C#CCN1C(=O)/C(=C/c2ccc(-c3ccccc3)o2)SC1=S` [LJ-032, (Z)-3-(2-propynyl)-5-(5-phenyl-2-furyl)methylene-4-oxothiazolidine-2-thione], in experiment [1] (setting [5]), the IC50 worked out at 1.03 µM.

Take “(Z)-3-(2,4-Dioxo-5-((5-phenylfuran-2-yl)methylene)thioxothiazolidin-3-yl) propyl-5-(2-oxohexahydro-1H-thieno[3,4-d]imidazol-4-yl)pentanoate [LJ-037]”: the “IC50 (μM)” value in experiment [1] is “Inactive”.

With `CCCN1C(=O)/C(=C/c2ccc(-c3ccccc3)o2)SC1=S` [LJ-003, (Z)-3-Propyl-5-(5-phenyl-2-furyl)methylene-4-oxothiazolidine-2-thione], the half-maximal inhibitory concentration (IC50) came out at 0.95 µM in experiment [1] and 0.9 µM in experiment [1] (setting [5]).

Molecule `C=CCN1C(=O)S/C(=C\c2ccc(-c3ccccc3)o2)C1=S` [LJ-029, (Z)-3-allyl-5-(5-phenyl-2-furyl)methylene-2-oxothiazolidine-4-thione] came in with an IC50 in experiment [1] (setting [5]) of 4.32 µM.

On to `CC(=O)NCCCN1C(=O)/C(=C/c2ccc(-c3ccccc3)o2)SC1=S` [LJ-034, (Z)—N-(3-(4-Oxo-5-((5-phenylfuran-2-yl)methylene)-2-thioxothiazolidin-3-yl)propyl)acetamide], for which the “IC50 (μM)” value in experiment [1] was “Inactive”.

In the case of `CC(C)(C)OC(=O)NCCCN1C(=O)/C(=C/c2ccc(-c3ccccc3)o2)SC1=S` [LJ-036, (Z)-tert-Butyl 3-(4-oxo-5-((5-phenylfuran-2-yl)methylene)-2-thioxothiazolidine-3-yl)propyl carbamate], in experiment [1] (read-out: IC50), the IC50 came to 0.74 µM.

With `CCN1C(=O)/C(=C/c2ccc(-c3ccccc3[N+]#N)o2)SC1=S.F[B-](F)(F)F` [LJ-020, (Z)-3-Ethyl-5-[5-(2-diazoniophenyl)-2-furyl]methylene-4-oxothiazolidine-2-thione tetrafluoroborate], the “antiviral activity in SAR discussion” value in experiment [1] is on record as “tolerated but led to generally lower activity”.

In the case of `C=CCN1C(=O)C(Cc2ccc(-c3ccccc3)o2)SC1=S` (stereo not drawn) [LJ-033, 3-Allyl-5-((5-phenylfuran-2-yl)methyl)-4-oxothiazolidin-2-thione], in experiment [1], the “IC50 (μM)” value is recorded as “Inactive” and the “antiviral activity in SAR discussion” value was “completely inactive”.

Regarding `C=CCN1C(=S)S/C(=C\c2ccc(-c3ccccc3)o2)C1=S` [LJ-027], the IC50 in experiment [1] (read-out: IC50) turned out to be 0.9 µM.
